Three compounds from ChEMBL document CHEMBL1150150, “New dammarane and malabaricane triterpenes from Caloncoba echinata” (J Nat Prod, 2002) can be followed below.

Data set [1] in a line: Effect on morphology of human erythrocytes assessed as occurrence of normal discocytes at 6.25 ug/mL after 48 hrs by Giemsa staining. The note with it: erythrocyte. In kind it is ADME, cell-based.
Data set [2] can be described thus: Effect on human erythrocyte morphology assessed as transformation of erythrocytes to spherostomatocytes at 25 to 100 ug/mL after 48 hrs by Giemsa staining. In kind it is ADME, cell-based.
A further data set concerns Plasmodium falciparum. The data set can be described thus: Antiplasmodial activity against chloroquine-sensitive Plasmodium falciparum 3D7 after 48 hrs by [3H]phenylalanine uptake.
Data set [3] is described as follows: Effect on morphology of human erythrocytes assessed as transformation of erythrocytes to stomatocytes S1 type at 6.25 ug/mL after 48 hrs by Giemsa staining. In kind it is ADME, cell-based. The note with it: erythrocyte.
The nature of data set [4]: Effect on human erythrocyte morphology assessed as transformation of erythrocytes to stomatocytes S1 type at 12.5 ug/mL after 48 hrs by Giemsa staining. In kind it is ADME, cell-based.
Data set [5] in a line: Effect on human erythrocyte morphology assessed as transformation of erythrocytes to stomatocytes S1 type at 25 to 100 ug/mL after 48 hrs by Giemsa staining. In kind it is ADME, cell-based.
Data set [6] in a line: Effect on human erythrocyte morphology assessed as ghost cell formation at 50 to 100 ug/mL after 48 hrs by Giemsa staining. In kind it is ADME, cell-based.
A short description of data set [7]: Toxicity in human erythrocyte assessed as lysis at 25 to 100 ug/mL after 48 hrs by Giemsa staining. In kind it is cell-based.
A short description of data set [8]: Toxicity in human erythrocytes assessed as transformation of erythrocytes to stomatocytes at 0.625 after 48 hrs by Giemsa staining. In kind it is cell-based. As to conditions: erythrocyte.
The nature of data set [9]: Effect on human erythrocyte morphology assessed as transformation of erythrocytes to stomatocytes after 48 hrs by Giemsa staining. In kind it is ADME, cell-based.
Data set [10] can be described thus: Effect on human erythrocyte morphology assessed as transformation of erythrocytes to stomatocytes S2 type at 25 to 100 ug/mL after 48 hrs by Giemsa staining. In kind it is ADME, cell-based.
Data set [11] in a line: Effect on morphology of human erythrocytes assessed as transformation of erythrocytes to stomatocytes S2 type at 6.25 ug/mL after 48 hrs by Giemsa staining. The note with it: erythrocyte. In kind it is ADME, cell-based.
Data set [12] is described as follows: Toxicity in human erythrocytes assessed as lysis at 12.5 ug/mL after 48 hrs by Giemsa staining. In kind it is cell-based. The note with it: erythrocyte.

In general, IC50 refers to the concentration at which inhibition is half-maximal. Higher therefore signals weaker potency in that assay. Turning to `C=C(CC[C@H](O)[C@@]1(C)CC[C@H](C(C)(C)O)O1)[C@H]1CC[C@H]2[C@@]1(C)CC[C@H]1C(C)(C)C(=O)CC[C@]21C`, the Activity result in data set [1] is reported as “Non-toxic”; in data set [2], “Toxic”; in [3] it was “Toxic”; in data set [4] it was “Toxic”; in data set [5], “Toxic”; in data set [6], “Toxic”. The Activity entry in data set [7] is “Toxic”; in data set [8], “Non-toxic”; in data set [9], “Toxic”; in [10] it was “Toxic”. Also, the IC50 in the data set with Plasmodium falciparum was < 12 µg/mL.
For `C=C(CC[C@@H](O)[C@]1(C)CC[C@H](C(C)(C)O)O1)[C@H]1CC[C@H]2[C@@]1(C)CC[C@H]1C(C)(C)C(=O)CC[C@]21C`, the Activity result in [1] is on record as “Non-toxic”; in [2], “Toxic”; in data set [3], “Toxic”; in data set [4], “Toxic”; in data set [5] it was “Toxic”; in [6], “Toxic”. Further, the Activity result in data set [7] was “Toxic”; in data set [8] it was “Non-toxic”; in [9], “Toxic”; in data set [10] it was “Toxic”. Besides, the IC50 with Plasmodium falciparum is < 12 µg/mL.
Regarding `CC(C)=CCC[C@@](C)(O)[C@H]1CC[C@]2(C)[C@@H]1C[C@@H](O)[C@@H]1[C@@]3(C)CCC(=O)C(C)(C)[C@@H]3CC[C@]12C`, the Activity result in data set [1] is “Non-toxic”; in [2] it was “Toxic”; in data set [3], “Toxic”; in data set [4], “Toxic”; in data set [11], “Toxic”; in [12] it was “Non-toxic”. The Activity result in [5] is listed as “Toxic”; in data set [6], “Toxic”; in data set [7], “Toxic”; in [8], “Non-toxic”; in [9], “Toxic”; in [10] it was “Toxic”. For the same compound, the IC50 in the data set with Plasmodium falciparum was < 12 µg/mL.
